Data as given in patent US20160375006A1, “USES OF PARALOG-SELECTIVE INHIBITORS OF GSK3 KINASES” (priority 2012, published 2016).
Like-named read-outs stand apart in the source and are kept apart here.

Tests used:
CLK1 = CLK1 (Homo sapiens, UniProt P49759); test: Carna kinase panel; assay type: biochemical
Protocol: (§1) This was completed utilizing one of two assays depending on the kinase being examined.
(§2) A solution of IMAP binding reagent (IMAP Screening Express kit; Molecular Devices) (60 μL) was added to each well and incubated for 30 minutes.
(§3) A solution of termination buffer (QuickScout Screening assist MSA; Carna Biosciences) (60 μL) was added to each well. The entire reaction mixture was then applied to a LabChip3000 system (Caliper Life Science) and the product and substrate peptide peaks were separated and quantified.

RSK3 = molecular target: T1, RSK3 (Homo sapiens, UniProt Q15349); test: Carna kinase panel; assay type: biochemical
T1 construct: purchased Carna Biosciences
Protocol: as §1, §2, §3

CDK5/p25 = CDK5/p25 (Homo sapiens, UniProt Q00535)
Sequence of CDK5/p25 (Q00535 whole entry, species assumed): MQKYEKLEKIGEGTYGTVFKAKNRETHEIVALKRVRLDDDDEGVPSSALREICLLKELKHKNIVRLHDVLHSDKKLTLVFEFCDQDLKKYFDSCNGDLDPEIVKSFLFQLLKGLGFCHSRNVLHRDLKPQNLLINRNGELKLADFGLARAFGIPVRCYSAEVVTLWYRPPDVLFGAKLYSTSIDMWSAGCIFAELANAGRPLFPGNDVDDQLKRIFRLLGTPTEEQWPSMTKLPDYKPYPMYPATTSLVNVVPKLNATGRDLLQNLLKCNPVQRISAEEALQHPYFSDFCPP
Sequence of CDK5/p25 (Q15078 99-307 partner limits assumed, species assumed): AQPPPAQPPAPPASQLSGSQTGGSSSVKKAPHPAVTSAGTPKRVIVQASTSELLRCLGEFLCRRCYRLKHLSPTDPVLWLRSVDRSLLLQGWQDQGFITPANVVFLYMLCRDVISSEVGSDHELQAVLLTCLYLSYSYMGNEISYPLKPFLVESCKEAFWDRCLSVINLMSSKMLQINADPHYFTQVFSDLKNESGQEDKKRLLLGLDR
Protocol: as §1, §2, §3
(§4) The assay utilized was identical to that of the single point inhibitory activity determination (MSA) but run in dose response. […] A solution of termination buffer (QuickScout Screening assist MSA; Carna Biosciences) (60 μL) was added to each well. The entire reaction mixture was then applied to a LabChip3000 system (Caliper Life Science) and the product and substrate peptide peaks were separated and quantified.

HGK = HGK (Homo sapiens, UniProt O95819)
Sequence of HGK (O95819 whole entry): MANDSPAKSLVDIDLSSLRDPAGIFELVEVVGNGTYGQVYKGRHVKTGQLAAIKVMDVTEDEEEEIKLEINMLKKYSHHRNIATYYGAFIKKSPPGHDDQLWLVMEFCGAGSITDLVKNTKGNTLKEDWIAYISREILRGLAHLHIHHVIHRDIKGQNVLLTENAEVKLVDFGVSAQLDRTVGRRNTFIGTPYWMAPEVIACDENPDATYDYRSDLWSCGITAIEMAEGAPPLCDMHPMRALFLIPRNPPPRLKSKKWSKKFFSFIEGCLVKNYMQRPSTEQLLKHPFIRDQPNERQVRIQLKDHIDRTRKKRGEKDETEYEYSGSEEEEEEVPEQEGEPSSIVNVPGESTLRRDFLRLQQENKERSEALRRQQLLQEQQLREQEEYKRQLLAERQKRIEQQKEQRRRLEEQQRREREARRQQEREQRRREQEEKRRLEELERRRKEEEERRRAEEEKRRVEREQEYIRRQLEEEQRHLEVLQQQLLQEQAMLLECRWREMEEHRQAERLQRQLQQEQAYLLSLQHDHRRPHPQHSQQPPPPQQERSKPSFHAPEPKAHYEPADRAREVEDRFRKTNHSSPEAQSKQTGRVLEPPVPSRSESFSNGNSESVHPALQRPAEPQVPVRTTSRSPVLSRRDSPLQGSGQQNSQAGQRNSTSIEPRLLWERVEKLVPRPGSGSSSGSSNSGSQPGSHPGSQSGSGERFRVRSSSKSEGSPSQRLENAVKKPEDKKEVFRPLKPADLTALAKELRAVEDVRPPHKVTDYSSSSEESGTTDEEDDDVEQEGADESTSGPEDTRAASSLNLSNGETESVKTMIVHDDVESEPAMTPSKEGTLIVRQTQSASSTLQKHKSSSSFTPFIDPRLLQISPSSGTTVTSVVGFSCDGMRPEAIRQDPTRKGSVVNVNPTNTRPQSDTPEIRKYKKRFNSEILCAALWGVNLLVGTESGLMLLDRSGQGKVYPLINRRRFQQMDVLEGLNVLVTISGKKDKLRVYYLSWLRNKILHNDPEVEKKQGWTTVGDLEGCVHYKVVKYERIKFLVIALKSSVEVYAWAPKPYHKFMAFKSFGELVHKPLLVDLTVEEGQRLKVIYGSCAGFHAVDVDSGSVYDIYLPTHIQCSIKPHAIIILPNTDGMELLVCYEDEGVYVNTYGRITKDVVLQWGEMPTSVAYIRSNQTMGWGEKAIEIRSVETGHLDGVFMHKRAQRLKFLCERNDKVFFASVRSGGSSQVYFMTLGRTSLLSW
Protocol: as §2, §3, §4

CDK7/CycH/MAT1 = CDK7/CycH/MAT1 (Homo sapiens, UniProt P50613)
Protocol: as §1, §2, §3, §4

RAF1_Cascade = RAF1_Cascade (Homo sapiens, UniProt P04049)
Protocol: as §1, §2, §3

MAP3K3_Cascade = MAP3K3_Cascade (Homo sapiens, UniProt Q99759)
Protocol: as §1, §3
(§5) The assay utilized was identical to that of the single point inhibitory activity determination (MSA) but run in dose response.

AMPKα2/β1/γ1 = AMPKα2/β1/γ1 (Homo sapiens, UniProt P54646)
Protocol: as §1, §3, §5

TAK1-TAB1_Cascade = TAK1-TAB1_Cascade (Homo sapiens, UniProt O43318)
Protocol: as §1, §2, §3, §4

TYRO3 = TYRO3 (Homo sapiens, UniProt Q06418)
Sequence of TYRO3 (Q06418 41-890): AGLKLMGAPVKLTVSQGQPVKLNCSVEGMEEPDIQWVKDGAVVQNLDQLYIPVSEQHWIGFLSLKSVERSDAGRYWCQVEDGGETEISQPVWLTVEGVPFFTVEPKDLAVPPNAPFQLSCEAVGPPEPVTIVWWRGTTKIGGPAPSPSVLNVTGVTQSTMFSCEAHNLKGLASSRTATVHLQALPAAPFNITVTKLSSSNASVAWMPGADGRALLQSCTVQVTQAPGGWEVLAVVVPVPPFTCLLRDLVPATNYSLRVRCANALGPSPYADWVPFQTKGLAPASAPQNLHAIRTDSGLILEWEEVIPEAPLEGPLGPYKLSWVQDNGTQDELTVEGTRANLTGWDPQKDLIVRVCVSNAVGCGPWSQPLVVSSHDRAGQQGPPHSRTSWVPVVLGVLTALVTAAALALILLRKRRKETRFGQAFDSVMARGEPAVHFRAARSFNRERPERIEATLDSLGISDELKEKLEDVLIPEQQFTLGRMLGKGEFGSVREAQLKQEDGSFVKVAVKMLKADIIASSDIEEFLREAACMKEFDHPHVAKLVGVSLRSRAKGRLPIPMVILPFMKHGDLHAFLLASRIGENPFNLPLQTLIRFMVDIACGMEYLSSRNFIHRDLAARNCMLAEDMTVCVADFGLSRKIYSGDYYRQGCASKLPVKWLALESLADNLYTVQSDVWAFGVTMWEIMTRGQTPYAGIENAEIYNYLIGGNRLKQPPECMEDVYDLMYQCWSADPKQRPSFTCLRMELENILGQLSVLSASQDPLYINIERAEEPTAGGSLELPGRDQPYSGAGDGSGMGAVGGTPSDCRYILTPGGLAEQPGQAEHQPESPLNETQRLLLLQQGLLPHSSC
Protocol: as §1, §2, §3

PYK2 = PYK2 (Homo sapiens, UniProt Q14289)
Protocol: as §1, §2, §3

PKACα = PKACα (Homo sapiens, UniProt P17612)
Protocol: as §1, §2, §3, §4

YES(T348I) = YES(T348I) (Homo sapiens, UniProt P07947, T348I)
Protocol: as §1, §2, §3, §4

SRC = SRC (Homo sapiens, UniProt P12931)
Protocol: as §1, §2, §3, §4

EPHA8 = EPHA8 (Homo sapiens, UniProt P29322)
Protocol: as §1, §2, §3, §4

PKN1 = PKN1 (Homo sapiens, UniProt Q16512)
Protocol: as §1, §2, §3, §4

HCK = HCK (Homo sapiens, UniProt P08631)
Sequence of HCK (P08631 whole entry): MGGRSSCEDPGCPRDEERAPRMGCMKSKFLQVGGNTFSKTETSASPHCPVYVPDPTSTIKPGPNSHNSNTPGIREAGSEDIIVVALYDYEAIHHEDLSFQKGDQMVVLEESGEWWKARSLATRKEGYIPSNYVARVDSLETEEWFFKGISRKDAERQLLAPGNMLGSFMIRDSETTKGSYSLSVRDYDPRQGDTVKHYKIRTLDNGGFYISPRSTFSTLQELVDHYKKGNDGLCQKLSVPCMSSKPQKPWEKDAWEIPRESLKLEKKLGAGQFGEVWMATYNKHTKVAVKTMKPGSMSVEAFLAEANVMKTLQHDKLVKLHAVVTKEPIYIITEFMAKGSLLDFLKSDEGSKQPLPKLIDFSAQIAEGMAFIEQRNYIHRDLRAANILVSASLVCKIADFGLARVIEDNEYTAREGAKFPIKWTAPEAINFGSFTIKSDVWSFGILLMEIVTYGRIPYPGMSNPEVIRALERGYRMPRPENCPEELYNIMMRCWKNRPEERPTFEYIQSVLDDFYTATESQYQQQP
Protocol: as §1, §2, §3

TIE2 = TIE2 (Homo sapiens, UniProt Q02763)
Protocol: as §1, §2, §3, §4

DCAMKL2 = DCAMKL2 (Homo sapiens, UniProt Q8N568)
Protocol: as §1, §2, §3, §4

MUSK = MUSK (Homo sapiens, UniProt O15146)
Protocol: as §1, §2, §3, §4

MAP2K7_Cascade = MAP2K7_Cascade (Homo sapiens, UniProt O14733)
Protocol: as §1, §2, §3, §4

EPHB3 = EPHB3 (Homo sapiens, UniProt P54753)
Protocol: as §1, §2, §3, §4

DDR2 = DDR2 (Homo sapiens, UniProt Q16832)
Sequence of DDR2 (Q16832 22-855): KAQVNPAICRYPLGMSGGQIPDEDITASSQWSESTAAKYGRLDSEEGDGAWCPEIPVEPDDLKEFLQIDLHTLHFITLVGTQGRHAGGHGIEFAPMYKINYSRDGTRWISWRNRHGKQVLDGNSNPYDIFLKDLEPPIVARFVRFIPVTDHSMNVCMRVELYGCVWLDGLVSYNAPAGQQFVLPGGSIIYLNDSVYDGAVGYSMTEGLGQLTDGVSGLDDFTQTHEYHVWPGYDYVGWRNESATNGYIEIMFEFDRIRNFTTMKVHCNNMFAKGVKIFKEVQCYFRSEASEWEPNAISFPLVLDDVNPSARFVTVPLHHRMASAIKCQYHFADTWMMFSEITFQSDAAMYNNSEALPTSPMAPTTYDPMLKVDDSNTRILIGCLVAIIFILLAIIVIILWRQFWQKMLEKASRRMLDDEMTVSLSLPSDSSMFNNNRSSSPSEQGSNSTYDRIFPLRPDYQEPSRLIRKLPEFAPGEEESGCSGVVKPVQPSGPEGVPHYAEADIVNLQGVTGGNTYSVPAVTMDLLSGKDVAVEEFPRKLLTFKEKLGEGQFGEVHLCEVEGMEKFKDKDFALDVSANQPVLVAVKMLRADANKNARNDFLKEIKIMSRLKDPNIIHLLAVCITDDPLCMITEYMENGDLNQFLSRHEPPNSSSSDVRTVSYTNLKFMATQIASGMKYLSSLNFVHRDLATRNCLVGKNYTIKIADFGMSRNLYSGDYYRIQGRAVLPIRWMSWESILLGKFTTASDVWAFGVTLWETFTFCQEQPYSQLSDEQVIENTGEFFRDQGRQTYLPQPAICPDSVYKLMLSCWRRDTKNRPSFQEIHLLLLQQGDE

SRPK1 = SRPK1 (Homo sapiens, UniProt Q96SB4)
Protocol: as §1, §2, §3, §4

RET(Y791F) = RET(Y791F) (Homo sapiens, UniProt P07949, Y791F)
Protocol: as §1, §2, §3, §4

MAP2K5_Cascade = MAP2K5_Cascade (Homo sapiens, UniProt Q13163)
Protocol: as §2, §3, §4

PAK1 = PAK1 (Homo sapiens, UniProt Q13153)
Protocol: as §2, §3, §4

CaMK1δ = CaMK1δ (Homo sapiens, UniProt Q8IU85)
Protocol: as §1, §2, §3, §4

TSSK2 = TSSK2 (Homo sapiens, UniProt Q96PF2)
Protocol: as §1, §2, §3

JNK3 = JNK3 (Homo sapiens, UniProt P53779)
Protocol: as §1, §2, §3

BLK = BLK (Homo sapiens, UniProt P51451)
Sequence of BLK (P51451 whole entry): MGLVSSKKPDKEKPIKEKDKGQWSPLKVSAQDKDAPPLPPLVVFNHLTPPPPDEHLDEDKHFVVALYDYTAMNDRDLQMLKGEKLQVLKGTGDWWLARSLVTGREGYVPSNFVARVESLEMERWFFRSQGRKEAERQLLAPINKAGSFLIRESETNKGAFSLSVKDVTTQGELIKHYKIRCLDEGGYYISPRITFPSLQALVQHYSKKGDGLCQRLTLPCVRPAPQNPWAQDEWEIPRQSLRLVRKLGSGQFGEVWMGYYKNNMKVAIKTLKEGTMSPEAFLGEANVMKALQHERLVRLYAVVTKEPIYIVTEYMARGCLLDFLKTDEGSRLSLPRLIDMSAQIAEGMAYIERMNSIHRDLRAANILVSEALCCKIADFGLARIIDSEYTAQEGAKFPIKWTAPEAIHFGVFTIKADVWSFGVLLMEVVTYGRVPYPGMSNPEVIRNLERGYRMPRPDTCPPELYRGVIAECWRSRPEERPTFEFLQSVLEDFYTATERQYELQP
Protocol: as §1, §2, §3, §4

RON = RON (Homo sapiens, UniProt Q04912)
Protocol: as §1, §2, §3, §4

SPHK2 = SPHK2 (Homo sapiens, UniProt Q9NRA0)
Protocol: as §1, §2, §3, §4

NDR1 = NDR1 (Homo sapiens, UniProt Q15208)
Protocol: as §1, §2, §3, §4

RSK1 = RSK1 (Homo sapiens, UniProt Q15418)
Protocol: as §1, §2, §3

CaMK2α = CaMK2α (Homo sapiens, UniProt Q9UQM7)
Protocol: as §1, §2, §3, §4

Erk1 = Erk1 (Homo sapiens, UniProt P27361)
Protocol: as §1, §2, §3

LATS2 = LATS2 (Homo sapiens, UniProt Q9NRM7)
Protocol: as §1, §2, §3, §4

EGFR(d746-750) = EGFR(d746-750) (Homo sapiens, UniProt P00533, DEL746-750)
Sequence of EGFR(d746-750) (P00533 with tags, fused parts or gaps DEL746-750 limits assumed): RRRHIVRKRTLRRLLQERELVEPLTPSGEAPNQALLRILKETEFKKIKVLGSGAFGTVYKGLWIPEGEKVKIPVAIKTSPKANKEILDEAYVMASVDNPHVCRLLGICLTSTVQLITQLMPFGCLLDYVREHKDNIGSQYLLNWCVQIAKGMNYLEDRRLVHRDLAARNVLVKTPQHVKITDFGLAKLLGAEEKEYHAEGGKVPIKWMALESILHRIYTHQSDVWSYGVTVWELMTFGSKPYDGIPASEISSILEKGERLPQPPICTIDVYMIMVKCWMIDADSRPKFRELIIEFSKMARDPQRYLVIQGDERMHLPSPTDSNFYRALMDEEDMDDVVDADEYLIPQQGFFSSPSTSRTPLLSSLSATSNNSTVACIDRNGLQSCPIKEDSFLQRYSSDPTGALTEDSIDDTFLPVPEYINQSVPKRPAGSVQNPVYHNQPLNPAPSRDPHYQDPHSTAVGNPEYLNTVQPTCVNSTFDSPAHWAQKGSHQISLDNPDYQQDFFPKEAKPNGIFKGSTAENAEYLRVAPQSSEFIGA
Protocol: as §1, §2, §3

MSK1 = MSK1 (Homo sapiens, UniProt O75582)
Protocol: as §1, §2, §3

## CC[C@@]1(c2ccccc2)C2=C(CC(C)(C)CC2=O)Nc2n[nH]cc21 [BRD0705]
CLK1
  % Inhibition at 10 μM: −7.1%
RSK3
  % Inhibition at 10 μM: −7.9%
CDK5/p25; CDK5/p25
  % Inhibition at 10 μM: 52.0%
CDK5/p25; read-out: IC50 CDK5/p25
  IC50: 9.2 µM
HGK
  % Inhibition at 10 μM: 14.9%
CDK7/CycH/MAT1
  % Inhibition at 10 μM: 8.3%
RAF1_Cascade
  % Inhibition at 10 μM: 7.5%
MAP3K3_Cascade
  % Inhibition at 10 μM: 5.6%
AMPKα2/β1/γ1
  % Inhibition at 10 μM: 5.1%
TAK1-TAB1_Cascade
  % Inhibition at 10 μM: 5.0%
TYRO3
  % Inhibition at 10 μM: 3.8%
PYK2
  % Inhibition at 10 μM: 3.5%
PKACα
  % Inhibition at 10 μM: 3.4%
YES(T348I)
  % Inhibition at 10 μM: 3.3%
SRC
  % Inhibition at 10 μM: 3.2%
EPHA8
  % Inhibition at 10 μM: 2.9%
PKN1
  % Inhibition at 10 μM: 1.8%
HCK
  % Inhibition at 10 μM: 1.1%
TIE2
  % Inhibition at 10 μM: 0.3%
DCAMKL2
  % Inhibition at 10 μM: −0.5%
MUSK
  % Inhibition at 10 μM: −0.6%
MAP2K7_Cascade
  % Inhibition at 10 μM: −0.6%
EPHB3
  % Inhibition at 10 μM: −1.3%
DDR2
  % Inhibition at 10 μM: −1.4%
SRPK1
  % Inhibition at 10 μM: −2.0%
RET(Y791F)
  % Inhibition at 10 μM: −2.2%
MAP2K5_Cascade
  % Inhibition at 10 μM: −2.3%
PAK1
  % Inhibition at 10 μM: −2.9%
CaMK1δ
  % Inhibition at 10 μM: −3.0%
TSSK2
  % Inhibition at 10 μM: −3.4%
JNK3
  % Inhibition at 10 μM: −3.4%
BLK
  % Inhibition at 10 μM: −3.4%
RON
  % Inhibition at 10 μM: −3.8%
SPHK2
  % Inhibition at 10 μM: −3.8%
NDR1
  % Inhibition at 10 μM: −4.8%
RSK1
  % Inhibition at 10 μM: −6.4%
CaMK2α
  % Inhibition at 10 μM: −8.6%
Erk1
  % Inhibition at 10 μM: −9.8%
LATS2
  % Inhibition at 10 μM: −11.9%
EGFR(d746-750)
  % Inhibition at 10 μM: −12.0%
MSK1
  % Inhibition at 10 μM: −27.1%

## CC(C)(C)Cc1[nH]nc2c1[C@](C)(c1ccccc1)C1=C(CC(C)(C)CC1=O)N2 [BRD3731]
CLK1; 10 μM
  % Inhibition 10 μM: 3.1%
RSK3; 10 μM
  % Inhibition 10 μM: 35.5%
CDK5/p25; CDK5/p25
  IC50: 8.9 µM
CDK5/p25; CDK5/p25, 10 μM
  % Inhibition 10 μM: 48.3%
CDK5/p25; IC50 CDK5/p25 / IC50 GSK3β
  Fold Selectivity: 331.0 fold
HGK; 10 μM
  % Inhibition 10 μM: −3.8%
CDK7/CycH/MAT1; 10 μM
  % Inhibition 10 μM: 21.3%
RAF1_Cascade; 10 μM
  % Inhibition 10 μM: −6.6%
MAP3K3_Cascade; 10 μM
  % Inhibition 10 μM: 1.8%
AMPKα2/β1/γ1; 10 μM
  % Inhibition 10 μM: 16.7%
TAK1-TAB1_Cascade; 10 μM
  % Inhibition 10 μM: 1.7%
TYRO3; 10 μM
  % Inhibition 10 μM: −3.5%
PYK2; 10 μM
  % Inhibition 10 μM: 5.3%
PKACα; 10 μM
  % Inhibition 10 μM: 17.1%
YES(T348I); 10 μM
  % Inhibition 10 μM: −2.3%
SRC; 10 μM
  % Inhibition 10 μM: 1.0%
EPHA8; 10 μM
  % Inhibition 10 μM: −1.9%
PKN1; 10 μM
  % Inhibition 10 μM: 16.2%
HCK; 10 μM
  % Inhibition 10 μM: 6.6%
TIE2; 10 μM
  % Inhibition 10 μM: 6.7%
DCAMKL2; 10 μM
  % Inhibition 10 μM: −1.3%
MUSK; 10 μM
  % Inhibition 10 μM: −7.9%
MAP2K7_Cascade; 10 μM
  % Inhibition 10 μM: 3.0%
EPHB3; 10 μM
  % Inhibition 10 μM: 0.1%
DDR2; 10 μM
  % Inhibition 10 μM: 7.9%
SRPK1; 10 μM
  % Inhibition 10 μM: 5.0%
RET(Y791F); 10 μM
  % Inhibition 10 μM: 9.5%
MAP2K5_Cascade; 10 μM
  % Inhibition 10 μM: 6.1%
PAK1; 10 μM
  % Inhibition 10 μM: −18.6%
CaMK1δ; 10 μM
  % Inhibition 10 μM: 16.7%
TSSK2; 10 μM
  % Inhibition 10 μM: 3.8%
JNK3; 10 μM
  % Inhibition 10 μM: −2.6%
BLK; 10 μM
  % Inhibition 10 μM: 4.9%
RON; 10 μM
  % Inhibition 10 μM: 2.3%
SPHK2; 10 μM
  % Inhibition 10 μM: 15.2%
NDR1; 10 μM
  % Inhibition 10 μM: −3.7%
RSK1; 10 μM
  % Inhibition 10 μM: 23.4%
CaMK2α; 10 μM
  % Inhibition 10 μM: −4.3%
Erk1; 10 μM
  % Inhibition 10 μM: 3.4%
LATS2; 10 μM
  % Inhibition 10 μM: −3.0%
EGFR(d746-750); 10 μM
  % Inhibition 10 μM: 2.5%
MSK1; 10 μM
  % Inhibition 10 μM: 7.4%
